Measured values reported in US7351843B2, “Furancarbonylguanidine derivatives, their preparation and pharmaceutical compositions containing them” (Korea Research Institute of Chemical Technology, priority 2003, dated 2008).

How the values were obtained:
[1] = tested on: isolated ischemic rat heart; experiment: Cardioprotective effect on isolated ischemic rat heart model (Langendorff, 30 min global ischemia / 30 min reperfusion); details: for RPP (rate pressure product, HR × LVDP) / LVEDP (left ventricular end diastolic pressure): after 30 min reperfusion; for RPP (rate pressure product, HR × LVDP): % of value before ischemia; for LVEDP (left ventricular end diastolic pressure): baseline 5 mmHg; for improvement of cardiac function (RPP, LVEDP) compared with cariporide: isolated ischemic rat heart, dose dependent
Description: Then, an intravenous injection of 1000 U/kg of heparin was performed before isolating their hearts. Particularly, cannula (PE 240) was inserted in the trachea, and artificial respiration was tried upon the rats by using a rodent ventilator. Under that condition, aortic cannula was inserted into the aorta and the heart was excised under retrograde perfusion. The excised heart was hung on Langendorff apparatus quickly and unnecessary tissues on the heart were removed. […] Then, left ventricular pressure transmitted through the balloon was transduced by using pressure transducer, and amplified by using Plugsys bridge amplifier isovolumetrically. […] Thereafter, the heart was stabilized for 15 minutes. […] Baseline left ventricular developing pressure (LVDP), heart rate (HR), and coronary flow (CF) were measured. LVDP was calculated by substracting […]. Double product RPP (rate-pressure product), another important parameter for indirectly assessing cardiac contratile function in Langendorff heart, whose cardiac output could not be measured ordinarily, was calculated by multiplying HR by LVDP. Throughout the experiment, total coronary blood flow was measured by the use of coronary flow probe (diameter: 1.0 mm) installed in aortic cannula with electromagnetic flowmeter. Temperature of heart was steadily maintained by immersing the heart at 37° C. in physiological saline solution to which 95% O2/5% CO2 was constantly supplied. […] Thereafter, LVDP, HR (heart rate) and CF (coronary flow) were repeatedly measured. Global ischemia was induced by completely shutting off the perfusate for 30 min. […] For a negative control, vehicle was treated only, and cariporide was used as a control.

[2] = tested on: ischemic rat heart; experiment: Cardioprotective effect on in vivo ischemic rat heart model (LAD occlusion 45 min / reperfusion 90 min, infarct size); details: anesthetized rats
Description: Left thoracotomy was performed. […] Cariporide was used for a control group.

| Compound | RPP (rate pressure product, HR × LVDP) ([1]; 1 μM) [%] | LVEDP (left ventricular end diastolic pressure) ([1]; 1 μM) [mmHg] | RPP (rate pressure product, HR × LVDP) ([1]; 10 μM) [%] | LVEDP (left ventricular end diastolic pressure) ([1]; 10 μM) [mmHg] | improvement of cardiac function (RPP, LVEDP) compared with cariporide [1] | Myocardial infarction rate (IS/AAR) ([2]; 1.0 mg/kg i.v.) [%] | RPP (rate pressure product, HR × LVDP) ([1]; 3 μM) [%] | LVEDP (left ventricular end diastolic pressure) ([1]; 3 μM) [mmHg] | Myocardial infarction rate (IS/AAR) ([2]; 0.1 mg/Kg i.v.) [%] | Myocardial infarction rate (IS/AAR) ([2]; 0.3 mg/kg i.v.) [%] |
| --- | --- | --- | --- | --- | --- | --- | --- | --- | --- | --- |
| CS(=O)(=O)O.N=C(N)NC(=O)c1ccc(-c2ccccc2)o1 [Example 4, [5-phenylfuran-2-ylcarbonyl]guanidine methanesulfonate] | 33.4 | 59.7 | 72.8 | 30.3 | better improvement of cardiac function (RPP, LVEDP) than cariporide | 49.6 |  |  |  |  |
| N=C(N)NC(=O)c1ccc(-c2cccc(Cl)c2)o1 [Example 6, [5-(3-chlorophenyl)furan-2-ylcarbonyl]guanidine] | 64.4 | 23.0 | 100.7 | 16.8 | better improvement of cardiac function (RPP, LVEDP) than cariporide | 40.4 | 66.8 | 27.7 | 52.7 | 44.9 |
| CS(=O)(=O)O.Cc1ccccc1-c1ccc(C(=O)NC(=N)N)o1 [Example 8, [5-(2-methylphenyl)furan-2-ylcarbonyl]guanidine methanesulfonate] |  |  | 93.2 | 16.5 | better improvement of cardiac function (RPP, LVEDP) than cariporide | 45.9 | 50.6 | 32.8 |  |  |
| CS(=O)(=O)O.N=C(N)NC(=O)c1ccc(-c2ccccc2C(F)(F)F)o1 [Example 11, [5-[2-(trifluoromethyl)phenyl]furan-2-ylcarbonyl]guanidine methanesulfonate] |  |  |  | 18.7 |  |  |  |  |  | 45.7 |
| COc1ccccc1-c1ccc(C(=O)NC(=N)N)o1.CS(=O)(=O)O [Example 14, [5-(2-methoxyphenyl)furan-2-ylcarbonyl]guanidine methanesulfonate] |  |  |  | 38.5 |  | 33.3 |  |  |  | 54.2 |
| N=C(N)NC(=O)c1ccc(-c2cccc(Cl)c2Cl)o1 [Example 37, [5-(2,3-dichlorophenyl)furan-2-ylcarbonyl]guanidine] |  |  | 39.9 | 16.3 |  | 40.2 |  |  |  |  |
| COc1ccc(Br)cc1-c1ccc(C(=O)NC(=N)N)o1 [Example 48, [5-(2-methoxy-5-bromophenyl)furan-2-ylcarbonyl]guanidine] |  |  |  |  |  |  |  |  | 50.1 |  |
| CS(=O)(=O)O.N=C(N)NC(=O)c1ccc(-c2cc(Cl)ccc2O)o1 [Example 49, [5-(2-hydroxy-5-chlorophenyl)furan-2-ylcarbonyl]guanidine methanesulfonate] | 41.1 | 35.8 | 80.5 | 20.7 | better improvement of cardiac function (RPP, LVEDP) than cariporide |  | 57.2 | 36.6 |  |  |
| [5-(2-fluoro-5-methylphenyl)furan-2-ylcarbonyl]guanidine [Example 33] |  |  | 17.1 | 51.0 |  |  |  |  |  |  |
| [5-(2-methyl-5-fluorophenyl)furan-2-ylcarbonyl]guanidine [Example 34] |  |  |  |  |  | 34.7 |  |  |  |  |
| [5-(2-phenoxyphenyl)furan-2-ylcarbonyl]guanidine [Example 26] |  |  | 2.7 | 32.0 |  |  |  |  |  |  |
| [5-(3,5-dimethylphenyl)furan-2-ylcarbonyl]guanidine [Example 42] |  |  |  | 12.7 |  |  |  |  |  |  |
